Reference: ChEMBL document CHEMBL5500384, “New synergistic benzoquinone scaffolds as inhibitors of mycobacterial cytochrome bc1 complex to treat multi-drug resistant tuberculosis” (Eur J Med Chem, 2024)
In brackets after ≈: the same amount, converted by molar mass.

Assays:
Format in all cases: functional
[1] = test system: Mycobacterium tuberculosis; assay: Antitubercular activity against multidrug resistant Mycobacterium tuberculosis BLG3381 incubated for 5 days by microtiter plate method; conditions: BLG3381, 120 h, time 5 day
[2] = test system: Mycobacterium tuberculosis; assay: Antitubercular activity against multidrug resistant Mycobacterium tuberculosis RF21212 incubated for 5 days by microtiter plate method; conditions: time 5 day; for MIC: Mycobacterium tuberculosis, RF21212, 120 h
[3] = test system: Mycobacterium tuberculosis; assay: Antitubercular activity against multidrug resistant Mycobacterium tuberculosis RF21250 incubated for 5 days by microtiter plate method; conditions: time 5 day; for MIC: Mycobacterium tuberculosis, RF21250, 120 h
[4] = test system: Mycobacterium tuberculosis; assay: Potentiation of rifampicin antitubercular activity against multidrug resistant Mycobacterium tuberculosis BLG3381 assessed as decrease in rifampicin MIC99.9 at 0.39 ug/ml by broth dilution method (reference value: 64 ug/ml); conditions: dose 0.39 µg/ml
[5] = test system: Mycobacterium tuberculosis; assay: Potentiation of isoniazid antitubercular activity against multidrug resistant Mycobacterium tuberculosis BLG3381 assessed as decrease in isoniazid MIC99.9 at 0.39 ug/ml by broth dilution method (reference value: 12.8 ug/ml); conditions: dose 0.39 µg/ml
[6] = test system: Mycobacterium tuberculosis; assay: Potentiation of rifampicin antitubercular activity against multidrug resistant Mycobacterium tuberculosis RF21212 assessed as decrease in rifampicin MIC99.9 at 3.125 ug/ml by broth dilution method (reference value: 128 ug/ml); conditions: dose 3.125 µg/ml
[7] = test system: Mycobacterium tuberculosis; assay: Potentiation of isoniazid antitubercular activity against multidrug resistant Mycobacterium tuberculosis RF21212 assessed as decrease in isoniazid MIC99.9 at 3.125 ug/ml by broth dilution method (reference value: 12.8 ug/ml); conditions: dose 3.125 µg/ml
[8] = test system: Mycobacterium tuberculosis; assay: Potentiation of rifampicin antitubercular activity against multidrug resistant Mycobacterium tuberculosis RF21250 assessed as decrease in rifampicin MIC99.9 at 0.39 ug/ml by broth dilution method (reference value: 128 ug/ml); conditions: dose 0.39 µg/ml
[9] = test system: Mycobacterium tuberculosis; assay: Potentiation of isoniazid antitubercular activity against multidrug resistant Mycobacterium tuberculosis RF21250 assessed as decrease in isoniazid MIC99.9 at 0.39 ug/ml by broth dilution method (reference value: 3.2 ug/ml); conditions: dose 0.39 µg/ml
[10] = test system: Mycobacterium tuberculosis; assay: Potentiation of rifampicin antitubercular activity against multidrug resistant Mycobacterium tuberculosis BLG3381 assessed as decrease in rifampicin MIC99.9 at 3.125 ug/ml by broth dilution method (reference value: 64 ug/ml); conditions: dose 3.125 µg/ml
[11] = test system: Mycobacterium tuberculosis; assay: Potentiation of isoniazid antitubercular activity against multidrug resistant Mycobacterium tuberculosis BLG3381 assessed as decrease in isoniazid MIC99.9 at 3.125 ug/ml by broth dilution method (reference value: 12.8 ug/ml); conditions: dose 3.125 µg/ml
[12] = test system: Mycobacterium tuberculosis; assay: Potentiation of rifampicin antitubercular activity against multidrug resistant Mycobacterium tuberculosis RF21212 assessed as decrease in rifampicin MIC99.9 at 0.78 ug/ml by broth dilution method (reference value: 128 ug/ml); conditions: dose 0.78 µg/ml
[13] = test system: Mycobacterium tuberculosis; assay: Potentiation of isoniazid antitubercular activity against multidrug resistant Mycobacterium tuberculosis RF21212 assessed as decrease in isoniazid MIC99.9 at 1.56 ug/ml by broth dilution method (reference value: 12.8 ug/ml); conditions: dose 1.56 µg/ml
[14] = test system: Mycobacterium tuberculosis; assay: Potentiation of rifampicin antitubercular activity against multidrug resistant Mycobacterium tuberculosis RF21250 assessed as decrease in rifampicin MIC99.9 at 0.78 ug/ml by broth dilution method (reference value: 128 ug/ml); conditions: dose 0.78 µg/ml
[15] = test system: Mycobacterium tuberculosis; assay: Potentiation of isoniazid antitubercular activity against multidrug resistant Mycobacterium tuberculosis RF21250 assessed as decrease in isoniazid MIC99.9 at 0.78 ug/ml by broth dilution method (reference value: 3.2 ug/ml); conditions: dose 0.78 µg/ml
[16] = test system: Mycobacterium tuberculosis; assay: Potentiation of rifampicin antitubercular activity against multidrug resistant Mycobacterium tuberculosis RF21212 assessed as decrease in rifampicin MIC99.9 at 1.56 ug/ml by broth dilution method (reference value: 128 ug/ml); conditions: dose 1.56 µg/ml
[17] = test system: Mycobacterium tuberculosis; assay: Potentiation of isoniazid antitubercular activity against multidrug resistant Mycobacterium tuberculosis RF21250 assessed as decrease in isoniazid MIC99.9 at 1.56 ug/ml by broth dilution method (reference value: 3.2 ug/ml); conditions: dose 1.56 µg/ml
[18] = test system: Mycobacterium tuberculosis; assay: Potentiation of isoniazid antitubercular activity against multidrug resistant Mycobacterium tuberculosis RF21212 assessed as decrease in isoniazid MIC99.9 at 0.78 ug/ml by broth dilution method (reference value: 12.8 ug/ml); conditions: dose 0.78 µg/ml
[19] = test system: Mycobacterium tuberculosis; assay: Potentiation of rifampicin antitubercular activity against multidrug resistant Mycobacterium tuberculosis BLG3381 assessed as decrease in rifampicin MIC99.9 at 6.25 ug/ml by broth dilution method (reference value: 64 ug/ml); conditions: dose 6.25 µg/ml
[20] = test system: Mycobacterium tuberculosis; assay: Potentiation of isoniazid antitubercular activity against multidrug resistant Mycobacterium tuberculosis BLG3381 assessed as decrease in isoniazid MIC99.9 at 6.25 ug/ml by broth dilution method (reference value: 12.8 ug/ml); conditions: dose 6.25 µg/ml
[21] = test system: Mycobacterium tuberculosis; assay: Potentiation of rifampicin antitubercular activity against multidrug resistant Mycobacterium tuberculosis RF21250 assessed as decrease in rifampicin MIC99.9 at 3.125 ug/ml by broth dilution method (reference value: 128 ug/ml); conditions: dose 3.125 µg/ml
[22] = test system: Mycobacterium tuberculosis; assay: Potentiation of isoniazid antitubercular activity against multidrug resistant Mycobacterium tuberculosis RF21250 assessed as decrease in isoniazid MIC99.9 at 3.125 ug/ml by broth dilution method (reference value: 3.2 ug/ml); conditions: dose 3.125 µg/ml

Row | Structure (SMILES) | MIC [1] | MIC99.9 [2] | MIC99.9 [3] | MIC99.9 [6] | MIC99.9 [7] | MIC [2] | MIC99.9 [10] | MIC99.9 [11] | MIC99.9 [13] | MIC99.9 [14] | MIC99.9 [15] | MIC99.9 [16] | MIC [3] | further results
1 | NC1=C(Cl)C(=O)c2ccccc2C1=O | 15.1 µM | 6.25 µg/mL (≈ 30.1 µM) | 3.125 µg/mL (≈ 15.1 µM) | 4 µg/mL | 1.6 µg/mL |  |  |  |  |  |  |  |  | MIC99.9 [4]: 0.007 µg/mL; MIC99.9 [5]: 0.8 µg/mL; MIC99.9 [8]: 0.125 µg/mL; MIC99.9 [9]: 0.2 µg/mL
2 | CCOc1cc(C2C(Cl)C(=O)N2C2=C(Cl)C(=O)c3ccccc3C2=O)ccc1O (stereo not given) | 28.9 µM |  | 3.125 µg/mL (≈ 7.23 µM) |  |  | 7.23 µM (≈ 3.13 µg/mL) | 0.5 µg/mL | 0.05 µg/mL | 0.4 µg/mL | 1 µg/mL | 0.2 µg/mL |  |  | MIC99.9 [12]: 0.5 µg/mL
3 | O=C1C(Cl)=C(N2C(=O)C(Cl)C2c2ccc([N+](=O)[O-])cc2)C(=O)c2ccccc21 (stereo not given) | 15 µM |  | 3.125 µg/mL (≈ 7.49 µM) | 2 µg/mL | 1.6 µg/mL | 30 µM (≈ 12.5 µg/mL) | 0.25 µg/mL | 0.025 µg/mL |  | 2 µg/mL | 0.4 µg/mL |  |  | 
4 | O=C1C(Cl)=C(N2C(=O)C(Cl)C2c2ccc(Cl)cc2)C(=O)c2ccccc21 (stereo not given) | 30.8 µM | 6.25 µg/mL (≈ 15.4 µM) | 6.25 µg/mL (≈ 15.4 µM) |  |  |  | 0.1 µg/mL | 1.6 µg/mL | 0.1 µg/mL | 4 µg/mL | 0.8 µg/mL | 0.031 µg/mL |  | 
5 | CN(C)c1ccc(C2C(Cl)C(=O)N2C2=C(Cl)C(=O)c3ccccc3C2=O)cc1 (stereo not given) | 30.1 µM | 6.25 µg/mL (≈ 15.1 µM) | 6.25 µg/mL (≈ 15.1 µM) |  |  |  | 4 µg/mL | 1.6 µg/mL | 3.2 µg/mL | 1 µg/mL |  | 16 µg/mL |  | MIC99.9 [17]: 1.6 µg/mL
6 | O=C1C(Cl)=C(N2C(=O)C(Cl)C2c2ccccc2)C(=O)c2ccccc21 (stereo not given) | 6.25 µg/mL |  |  |  |  |  |  |  |  |  |  |  |  | 
7 | COc1ccc(C2C(Cl)C(=O)N2C2=C(Cl)C(=O)c3ccccc3C2=O)cc1 (stereo not given) | 15.5 µM |  | 6.25 µg/mL (≈ 15.5 µM) |  |  | 31.1 µM (≈ 12.5 µg/mL) | 1 µg/mL | 0.4 µg/mL |  |  |  | 16 µg/mL |  | MIC99.9 [18]: 1.6 µg/mL; MIC99.9 [8]: 0.125 µg/mL; MIC99.9 [9]: 0.4 µg/mL
8 | O=C1C(Cl)=C(Cl)C(=O)c2ccccc21 [Dichlon] | 55.1 µM |  |  | 32 µg/mL | 3.2 µg/mL | 55.1 µM (≈ 12.5 µg/mL) |  |  |  |  |  |  | 27.5 µM (≈ 6.25 µg/mL) | MIC99.9 [19]: 8 µg/mL; MIC99.9 [20]: 0.8 µg/mL; MIC99.9 [21]: 16 µg/mL; MIC99.9 [22]: 0.4 µg/mL
9 | NNC(=O)c1ccncc1 [ISONIAZID] | 93.9 µM |  |  |  |  | 93.9 µM (≈ 12.9 µg/mL) |  |  |  |  |  |  | 23.3 µM (≈ 3.2 µg/mL) | 
10 | CO[C@H]1/C=C/O[C@@]2(C)Oc3c(C)c(O)c4c(O)c(c(/C=N/N5CCN(C)CC5)c(O)c4c3C2=O)NC(=O)/C(C)=C\C=C\[C@H](C)[C@H](O)[C@@H](C)[C@@H](O)[C@@H](C)[C@H](OC(C)=O)[C@@H]1C [RIFAMPIN] | 77.8 µM |  |  |  |  | 156 µM (≈ 128 µg/mL) |  |  |  |  |  |  | 156 µM (≈ 128 µg/mL) | 
